Test results as given in article PMC9478491, “Therapeutic effects and mechanisms of N-(9,10-anthraquinone-2-ylcarbonyl) xanthine oxidase inhibitors on hyperuricemia” (Frontiers in Pharmacology, 2022).
“And” between values parts separate entries of the source, which are not always exact repeats. Equal entries are not always repeated. Where two headings read alike, the source gives them in different places.

Columns and labels:
[1] = system: rats; parameters: method as in Izmerov et al., 1982; settings: ref Izmerov et al., 1982; cited from earlier work
[2] = system: mice; parameters: method as in Izmerov et al., 1982; settings: ref Izmerov et al., 1982; cited from earlier work
[3] = system: potassium oxonate-induced hyperuricemia mice; assay: UA, CRE and BUN in serum and urine of hyperuricemia mice; type: in vivo, mouse; settings: allopurinol 10 mg/kg gavage, 7 days
Description: Ninety SPF male KM mice (20 ± 2 g) were maintained in a normally controlled breeding room with standard laboratory food and water for 1 week prior to the experiments. The uricase inhibitor potassium oxonate was used to induce hyperuricemia in mice, according to previous reports ([Chen et al., 2019]).
Potassium oxonate (model drug), NAY (drug to be tested), and allopurinol (positive drug) were dissolved or suspended in double steaming water. The drug dose used is expressed in “mg/kg.” The dose given for each dose is converted based on the body surface area conversion method. […] Except the normal control mice, others were orally administered by 250 mg/kg potassium oxonate once daily for seven consecutive days to induce hyperuricemia. […] After 7 days’ treatment, diets were removed from the cages 12 h before the animals were sacrificed. The blood was allowed to clot for approximately 1 h at room temperature and centrifuged at 3,000 rpm for 10 min to obtain serum. Serum was divided into three portions, one to detect biochemical markers such as UA, one to detect inflammatory factors, and the remaining stored at−20°C as a backup. […]
The levels of serum UA, CRE, and BUN were measured by using the method recommended in the purchase kit. The levels of serum TNF-α, IL-6, and NLRP3 were measured by using the method recommended in the ELISA kits.

[4] = system: potassium oxonate-induced hyperuricemia mice; assay: Morphology (HE) of renal and liver tissue in hyperuricemia mice; type: in vivo, mouse; settings: allopurinol 10 mg/kg
From the text: The liver and kidney tissues fixed in paraformaldehyde were dehydrated to be transparent. Then put the transparent tissue block into the melted paraffin, and embed it after the paraffin is completely immersed in the tissue block. Fix the embedded wax block on the microtome and cut it into 5 μm thin slices. The thin slice is ironed in hot water, then pasted on the glass slide, and dried. Before staining, paraffin wax in the sections was removed with xylene, then soaked with high to low concentration alcohol, and finally soaked in distilled water for 2 min. The dewaxed and rehydrated slices were stained in hematoxylin solution for several minutes and then washed with running water. Then put the slices into 1% hydrochloric alcohol (5–10 s) and rinse with tap water, after rinsing, place the slices in distilled water. After 2 min, the slices were removed and dehydrated with […]. After dehydration, the slices were stained with alcohol eosin solution for 2–3 min. After dehydration by alcohol, xylene was used to make the slices transparent. Finally, the transparent slices were dripped with gum and sealed with a cover glass.
Potassium oxonate (model drug), NAY (drug to be tested), and allopurinol (positive drug) were dissolved or suspended in double steaming water. […]

[5] = system: XOD; type: cell-based, mouse; settings: AML12 cells, allopurinol 100 μmol/L, p < 0.001
[6] = system: AML12 cells; assay: Culture supernatant UA level of hyperuricemia AML12 cells; type: cell-based, mouse; settings: allopurinol 100 μmol/L, p < 0.001
Description: AML12 cells in logarithmic growth were digested with trypsin, and cell suspension was made by pipette blowing. After counting with a blood counting plate, the cells were diluted to 10^5 cells/mL, and 1 ml of each well was inoculated in a medium dish. The cells were placed in a 5% (V/V) CO2 cell incubator at 37 °C for 24 h. 24 h later, the cell supernatant was discarded, washed with PBS for three times, and the adenosine solution prepared with the current basic medium without fetal bovine serum as the solvent was added. The dosage of adenosine was 1.5 mmol/L, and the cells were placed in the cell culture box for further incubation for 24 h. The culture dish was taken out, 0.005 IU xanthine oxidase (XO) was added to each well, and incubated in the cell incubator for 24 h, and then the hyperuricemia liver cell model was obtained.
AML12 cells were cultured in complete medium at 37 °C and a 5% CO2 cell incubator. Logarithmic growth cells were made into cell suspension with trypsin. The cells were inoculated into 24-well plates at the concentration of 10^5 cells/ml and cultured in a cell incubator at 37°C and 5% CO2 for 24 h. After the cells adhered to the wall, the medium in 24-well plates was discarded and washed with PBS for three times. […] After 24 h, the model and administration groups were washed with PBS for three times. […]

[7] = system: HK-2 cells; assay: Culture supernatant UA level of hyperuricemia HK-2 cells; type: cell-based, human; settings: allopurinol 100 μmol/L
Description: According to the establishment method of HK-2 cells, hyperuricemia model was reported in the literature ([Hou et al., 2019]), and HK-2 cells was cultured in a complete medium in a 5% CO2, 37°C cell incubator. The cells in the logarithmic growth phase were inoculated on a 24-well plate at a concentration of 10^5 cells/ml. The cells were cultured in a 37 °C incubator for 24 h. 24 h later, discard the culture medium, and wash cells by PBS for three times. Add 2.5 mmol/L adenosine solution prepared from the incomplete medium to each well and incubate in the incubator for 24 h. Then 0.005 IU/mg XO solution was added to each well in the 24-well plate, and the supernatant was collected after incubation for 12 h. The absorbance was measured on the microplate reader using the UA kit.
Hk-2 cells were cultured in a 5% CO2 cell incubator at 37 °C in complete medium. The cells in the logarithmic growth phase were inoculated on a 24-well plate at a concentration of 10^5 cells/ml and cultured in a 5% CO2 cell incubator at 37°C for 24 h. After 24 h, the culture medium was discarded and washed with PBS for three times. […] After 24 h, the model and drug administration groups were washed with PBS for three times, and the model and drug administration groups were added with 2.5 mmol/L adenosine solution prepared with incomplete whole medium and incubated in an incubator for 24 h. […]

[8] = system: TNF-α, IL-6, IL-1β, NLRP3; assay: TNF-α, IL-6, IL-1β, NLRP3 in HK-2 culture supernatant (ELISA); type: cell-based, human; settings: HK-2 cells, allopurinol 100 μmol/L, p < 0.01
From the text: The culture, induction, and administration of hyperuricemia HK-2 cells were the same as described earlier. Finally, the supernatant of the culture medium was collected to detect the levels of inflammatory factors. ELISA kits were used to detect the supernatant TNF-α, IL-6, IL-1β, and NLRP3 levels of the culture medium.

[9] = system: XOD; assay: Western blot, XOD protein in AML12 cells; type: cell-based, mouse; settings: allopurinol 100 μmol/L, p < 0.01
Description: The total protein of HK-2 cells and AML12 cells were extracted with total protein extraction kit, and the concentration was determined by the BCA kit. Electrophoresis, membrane transfer, antibody incubation, and other operations were performed in accordance with the Western blot experiment procedures. The protein bands were quantified by ImageJ software and normalized to individual β-actin expression levels.

[10] = Pharmacokinetics in rats (HPLC-MS/MS, WinNonlin); type: in vivo, SD rats
Description: The volume of intravenous administration was 1 ml/250 g, and the volume of oral administration was 1 ml/100 g. Whole blood was collected at 2, 5, 10, 20, 30, 60, 120, 240, 360, 480, 720, and 1440 min after intravenous administration. The rats’ blood was transferred to the heparinized test tube. The whole blood was centrifuged at 8,000 rpm for 5 min, and the plasma was separated and stored in a refrigerator at -80°C for testing.

[11] = system: patients; parameters: method as in Madero et al., 2009; Liu et al., 2016; settings: patients taking allopurinol; ref Madero et al., 2009; Liu et al., 2016; cited from earlier work
[12] = allopurinol, rats, gavage 50 mg/kg, n = 3
[13] = allopurinol, rats, gavage 50 mg/kg, single animals, 50 mg/kg
[14] = allopurinol, rats, intravenous injection 5 mg/kg, single animals, 5 mg/kg

## O=C1c2ccccc2C(=O)c2ccccc21 [AQ, 9,10-anthraquinone]
[1]
  acute oral toxicity LD50: > 5,000 mg/kg BW
[2]
  acute oral toxicity LD50: > 5,000 mg/kg BW

## Oc1ncnc2[nH]ncc12 [allopurinol]
[3]
  serum UA, CRE and BUN levels vs model group: obviously decreased the aforementioned indexes
[4]
  liver tissue morphology (HE): many inflammatory cell infiltrates with a small number of hepatocyte necrosis
  renal tissue morphology (HE): Renal cortical inflammatory cell infiltration and marked tubular luminal expansion
[5]
  XOD activity vs model group: effect of the allopurinol group on reducing XOD viability and the level of supernatant UA were obvious
[6]
  supernatant UA level vs model group: effect of the allopurinol group on reducing XOD viability and the level of supernatant UA were obvious
[7]
  UA levels in hyperuricemia cell model: could reduce UA levels
[8]
  IL-6 level in medium supernatant: could reduce the IL-6 level
  TNF-α level in medium supernatant: significantly reduced the TNF-α level
[9]
  XOD protein expression vs model group: significantly reduced
[10]; SD, rat, plasma, iv, 5 mg/kg, allopurinol, rats, intravenous injection 5 mg/kg, n = 3, read-out: AUC (0–t), Average
  AUC(0-t): 1540 ng·h/mL
[10]; SD, rat, plasma, iv, 5 mg/kg, allopurinol, rats, intravenous injection 5 mg/kg, n = 3, read-out: AUC (0–∞), Average
  AUC(0-inf): 1590 ng·h/mL
[10]; SD, rat, plasma, iv, 5 mg/kg, allopurinol, rats, intravenous injection 5 mg/kg, n = 3, read-out: MRT (0–∞), Average
  MRT inf: 0.27 h
[10]; SD, rat, plasma, iv, 5 mg/kg, allopurinol, rats, intravenous injection 5 mg/kg, single animals, read-out: AUC (0–t), individual rats 1-3
  AUC(0-t): 1600 ng·h/mL
[10]; SD, rat, plasma, iv, 5 mg/kg, allopurinol, rats, intravenous injection 5 mg/kg, single animals, read-out: AUC (0–∞), individual rats 1-3
  AUC(0-inf): 1650 ng·h/mL
[10]; SD, rat, plasma, iv, 5 mg/kg, allopurinol, rats, intravenous injection 5 mg/kg, single animals, read-out: MRT (0–∞), individual rats 1-3
  MRT inf: 0.27 h
[10]; SD, rat, plasma, iv, 5 mg/kg, allopurinol, rats, intravenous injection 5 mg/kg, read-out: AUC0-∞
  AUC(0-inf): 1590 ± 139 ng·h/mL
[10]; SD, rat, plasma, iv, 5 mg/kg, read-out: C2min (drug concentration in plasma)
  concentration at 2 min: 5280 ± 686 ng/mL
[10]; SD, rat, plasma, iv, 5 mg/kg, read-out: elimination rate constant K (converted)
  k el: 0.000964 s⁻¹
[10]; SD, rat, plasma, oral, 50 mg/kg, read-out: F
  bioavailability: 158%
[10]; SD, rat, plasma, po, 50 mg/kg, allopurinol, rats, gavage 50 mg/kg, n = 3, read-out: AUC (0–t), Average
  AUC(0-t): 24500 ng·h/mL
[10]; SD, rat, plasma, po, 50 mg/kg, allopurinol, rats, gavage 50 mg/kg, n = 3, read-out: AUC (0–∞), Average
  AUC(0-inf): 25100 ng·h/mL
[10]; SD, rat, plasma, po, 50 mg/kg, allopurinol, rats, gavage 50 mg/kg, n = 3, read-out: Cmax, Average
  Cmax: 6610 ng/mL
[10]; SD, rat, plasma, po, 50 mg/kg, allopurinol, rats, gavage 50 mg/kg, n = 3, read-out: MRT (0–∞), Average
  MRT inf: 2.36 h
[10]; SD, rat, plasma, po, 50 mg/kg, allopurinol, rats, gavage 50 mg/kg, single animals, read-out: AUC (0–t), individual rats 1-3
  AUC(0-t): 27500 ng·h/mL
[10]; SD, rat, plasma, po, 50 mg/kg, allopurinol, rats, gavage 50 mg/kg, single animals, read-out: AUC (0–∞), individual rats 1-3
  AUC(0-inf): 28700 ng·h/mL
[10]; SD, rat, plasma, po, 50 mg/kg, allopurinol, rats, gavage 50 mg/kg, single animals, read-out: Cmax, individual rats 1-3
  Cmax: 6100 ng/mL
[10]; SD, rat, plasma, po, 50 mg/kg, allopurinol, rats, gavage 50 mg/kg, single animals, read-out: MRT (0–∞), individual rats 1-3
  MRT inf: 2.88 h
[10]; SD, rat, plasma, po, 50 mg/kg, read-out: Tmax, individual rats 1-3
  Tmax: 1 h
[10]; SD, rat, plasma, po, 50 mg/kg, read-out: calculated bioavailability
  bioavailability: 158%
[10]; [12]
  Tmax, Average: 1.00 h
  V/F, Average: 3.18 L/kg
[10]; allopurinol, rats, gavage 50 mg/kg, single animals
  Tmax, individual rats 1-3: 1.00 h
[10]; [13]
  AUC (0–t), individual rats 1-3: 19623.63 ng·h/mL and 26462.91 ng·h/mL
  AUC (0–∞), individual rats 1-3: 20029.34 ng·h/mL and 26666.72 ng·h/mL
  Cmax, individual rats 1-3: 5,968.97 ug/L and 7742.83 ug/L
  MRT (0–∞), individual rats 1-3: 1.84 h and 2.35 h
  V/F, individual rats 1-3: 3.19 L/kg and 3.81 L/kg and 2.53 L/kg
[10]; allopurinol, rats, intravenous injection 5 mg/kg, n = 3
  V, Average: 0.92 L/kg
[10]; [14]
  AUC (0–t), individual rats 1-3: 1383.23 ng·h/mL and 1648.60 ng·h/mL
  AUC (0–∞), individual rats 1-3: 1432.09 ng·h/mL and 1687.42 ng·h/mL
  MRT (0–∞), individual rats 1-3: 0.29 h
  V, individual rats 1-3: 0.91 L/kg and 1.05 L/kg and 0.81 L/kg
[11]
  patients who can reduce serum UA concentration to the target level: less than 40%
